Measured values from paper PMC12036875, “Mitochondria-targeting natural product rhein conjugated with dichloroacetate as the dual inhibitor of glycolysis and oxidative phosphorylation to off energize cancer cells and induce ROS storm” (Theranostics, 2025).

Assay: Stability in simulated gastrointestinal environment (HPLC)
Assay type: physicochemical
Settings: 37°C, within 2 h
Experimental: The proven oral administration experiences of rhein and DCA validated the feasibility and potential of our research on the oral administration of their derivative, Rhein-DCA [34], [35]. We first evaluated the stability of Rhein-DCA by simulating gastric acid (pH 1.5) and intestinal (pH 6.8) conditions in vitro with HPLC. The stability of the Rhein-DCA was as high as 85% within 2 h, indicating the stable of Rhein-DCA in gastrointestinal environment, and it was capable of being efficiently absorbed via the gastrointestinal tract (Figure S21).
Prepare phosphate buffer solutions at pH 1.5 (gastric simulation) and pH 6.8 (intestinal simulation). Rhein-DCA was added to the buffer and incubated at 37°C. Samples were collected at 0, 2, 4, and 6 h for HPLC analysis. Calculate stability (%) = (Ct / C0) × 100, where Ct and C0 are concentrations at time t h and 0 h, respectively.

## O=C(OCCOC(=O)C(Cl)Cl)c1cc(O)c2c(c1)C(=O)c1cccc(O)c1C2=O [Rhein-DCA]
  stability in simulated gastric acid (pH 1.5) and intestinal (pH 6.8) conditions: 85%
